Columns and labels:
[1] = tested on: C2C12 mouse muscular cell line; experiment: ROS production (DCF-DA) in C2C12 cells under oxidative stress; type: cell-based; conditions: 1 μmol/L; stress by hypoxia (1% O2), AGEs, hyperglycemia (25 mM) or H2O2; FIG. 8
Protocol: Kinetic analysis of ROS production was evaluated by using DCF-DA (5-(and-6)-carboxy-2′,7′-dichlorofluorescein diacetate, 0.5 μmol/L final concentration) (Molecular Probe, Invitrogen) assay. C2C12 cells were cultured with 400 μg/ml Advanced Glycated End-product (AGE) or 25 mM glucose (high glucose HG) for 48 h, H2O2 (100 μM) for 2 h. In parallel experiments C2C12 cells were subjected to hypoxia (DMEM+2% FCS in a 5% CO2-95% N2 humidified atmosphere, yielding to 1% O2 concentrations for 24 h). UAG (1 μmol/L) AZP 531 (1 μmol/L) or AZP-502 (1 μmol/L) was added where indicated.

[2] = tested on: SCs transfected with SOD-2 siRNA; experiment: In-vitro ischemia of SCs silenced for SOD-2 by siRNA; type: cell-based, C57BL/6J mice
Protocol: (§1) SCs were isolated from gastrocnemius muscles of C57BL/6J wild type mice subjected to ischemia or C57BL/6J mice lacking the GHSR1a and ghrelin genes (10 mice, kind gift of Professor M. Tschöp)^39. To obtain SCs, muscle samples were subjected to enzymatic digestion as described^45. In selected experiments, SCs were recovered from normo-perfused muscles and subjected to in-vitro ischemia in presence of saline, AG (1 μmol/L) or UAG (1 μmol/L). In-vitro ischemia was induced by incubating cells in DMEM+2% FCS at 5% CO2/95% N2 humidified atmosphere, yielding 1% O2 concentrations for 24 h^18. The in-vitro ischemia was also performed in the presence of SB202190 (1 μmol/L).
(§2) SC cell-cycle progression was evaluated by evaluating the percentage of PCNA-positive cells or by FACS analysis as previously described^46. The percentage of cells in each cell cycle phase was determined by ModFit LT software (Verity Software House. Inc, topsham, ME, USA). Celss proliferation was also assayed by evaluating the percentage of PCNA-positive cells by FACS analysis.
(§3) Cells were lysed and protein detection was obtained as previously described^47. Cells were lysed (50 mmol/L Tris HCl [pH 8.3], 1% Triton X-100, 10 mmol/L PMSF, 100 U/ml aprotinin, 10 μmol/L leupeptin) and protein concentrations were obtained as previously described^47. […] Densitometric analysis was used to calculate the differences in the fold induction of protein levels and normalized to tubulin, a actin or p38MAPK content. Values are reported as relative amount
(§4) Intracellular ROS production was evaluated using DCF-DA (5-(and-6)-carboxy-2′,7′-dichlorofluorescein diacetate, […] final concentration) (Molecular Probe, Invitrogen) assay as previously described^23. The formation of TBARS was determined in muscles using the OXI-TEK kit (ZeptoMetrix Corp.) and a luminescence spectrometer (Bio-Rad Laboratories, Hercules, Calif.) with excitation set at 530 nm, emission at 550 nm to measure in-vivo oxidative stress levels^33.
(§5) Total RNA was isolated using TRIzol reagent (Invitrogen) from SCs recovered from muscles of treated animals or from SCs subjected to in-vitro ischemia. miR-221/222 expression was evaluated by qRT-PCR as previously described^48. Loss-of-function experiments were performed in SCs transfected for 48 h with anti-miRNA negative control, anti-miR-221/222 antagonists (Applied Biosystem, Foxter Cyto CA, USA), according to the manufacturer's instructions^48.
To obtain SOD-2 inactivation, SCs were transiently transfected with siRNA for SOD-2 or with duplex siRNAs (Qiagen, Valencia, Calif., USA) as previously described^44. Transfection was performed according to the manufacturer's instructions. Whole cell extracts were processed 48 h after transfection. Cell viability was evaluated at the end of each experiment.

[3] = tested on: satellite cells (SCs) from ischemic muscles; experiment: SCs recovered from ischemic muscles of treated mice (ex vivo analysis); type: in vivo, C57BL/6J mice
Protocol: (§6) Male C57BL/6J mice (Charles River Lab., Wilmington, Mass., USA) were anesthetized and unilateral hind limb ischemia was induced as described^42. The normo-perfused contralateral limb of each mouse was used as an internal control. After hind-limb ischemia, animals (18 mice per group) were treated by intra-peritoneal injection daily from 0 to day 21 with either saline, AG (100 μg/kg) or UAG (100 μg/kg). In selected experiments, mice received intramuscular injections of pre-miR oligonucleotides (5 mice/group). To induce toxic damage, 100 μl of 1% barium chloride (BaCl2, Sigma Aldrich) was injected unilaterally into the hind limb (9 mice). Mice were treated according to European Guidelines and policies as approved by the University of Turin Ethical Committee.
as §1, §3, §4, §5

[4] = tested on: SCs from double KO mice; experiment: In-vitro ischemia of SCs from double KO mice lacking the GHSR1a and ghrelin genes; type: cell-based, C57BL/6J mice lacking the GHSR1a and ghrelin genes
Protocol: as §1, §2, §3, §4

[5] = tested on: healthy volunteers; conditions: administered concomitantly with ghrelin; cited from earlier work
[6] = tested on: primary SCs; experiment: In-vitro ischemia of primary SCs from normo-perfused muscles; type: cell-based, C57BL/6J mice; conditions: 1 μmol/L, 1% O2 24 h
Protocol: as §1, §2, §3, §4, §5

[7] = target: GHSR-1a (Homo sapiens, UniProt Q92847); conditions: at physiological concentrations; cited from earlier work
GHSR-1a, sequence (Q92847 whole entry): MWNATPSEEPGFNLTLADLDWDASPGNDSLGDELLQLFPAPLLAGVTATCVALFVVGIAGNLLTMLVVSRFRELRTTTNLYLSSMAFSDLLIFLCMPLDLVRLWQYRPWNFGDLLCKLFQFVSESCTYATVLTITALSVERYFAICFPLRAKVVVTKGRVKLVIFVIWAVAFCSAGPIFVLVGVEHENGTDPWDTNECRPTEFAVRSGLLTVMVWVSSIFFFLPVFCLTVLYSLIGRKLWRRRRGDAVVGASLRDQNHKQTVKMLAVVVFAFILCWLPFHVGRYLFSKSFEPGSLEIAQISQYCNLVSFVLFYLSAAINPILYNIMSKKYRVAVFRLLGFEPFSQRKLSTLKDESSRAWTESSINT

[8] = tested on: unilateral hind limb ischemia in C57BL/6J mice (ischemic gastrocnemius muscle); experiment: Murine hind-limb ischemia model; type: in vivo; conditions: for Pax-7/MyoD+ cells in ischemic muscles: FIG. 2A
Protocol: as §6
Semiquantitative estimation (by repeated measures analyzed with ANOVA and Newman-Keuls Multiple Comparison test) of foot damage was performed serially using the following classification: 3=dragging of foot (foot necrosis), 2=no dragging but no plantar flexion (foot damage), 1=plantar flexion but no toe flexion (toe damage), and 0=flexing the toes to resist gentle traction on the tail (no damage)^43.
(§7) Gastrocnemius muscle sections from ischemic or normo-perfused limbs were stained with hematoxylin and eosin for histological analysis. The proportion of fibers with central nuclei (regenerating fibers) was measured by MetaMorph software (Life Sciences Research Imaging Systems) in the injured area and the cross-sectional areas of the fibers in the injured and non-injured areas. For IF analysis, muscle sections were processed as described previously^44. The number of cells expressing the indicated markers or CD31 positive vessels was evaluated as previously described^34.
as §4

[9] = tested on: SCs transfected with anti-miR-221/222; experiment: Loss-of-function: SCs transfected with anti-miR-221/222 antago-miRs; type: cell-based, mice; conditions: anti-miR-221/222 transfected SCs; data not shown
Protocol: as §5

[10] = tested on: BaCl2-injected gastrocnemius muscles of C57BL/6J mice; experiment: Toxic muscle damage induced by 1% barium chloride (BaCl2); type: in vivo; conditions: 1% BaCl2; FIG. 3E
Protocol: as §6, §7

For “Gly-Ser-Ser-Phe-Leu-Ser-Pro-Glu-His-Gln-Arg-Val-Gln-Gln-Arg-Lys-Glu-Ser-Lys-Lys-Pro-Pro-Ala-Lys-Leu-Gln-Pro-Arg (GSSFLSPEHQRVQQRKESKKPPAKLQPR; listed as Homo sapiens) [UAG]”, the “protection against oxidative stress (ROS production)” value [1] was “have a protective effect on C2C12 cells against oxidative stress”, the “UAG-induced miR-221/222 expression” value ([2]; SOD-2 knock-down, FIG. 7B) was “SOD-2 knock-down prevents UAG-induced miR-221/222 expression” and the “protection against ROS generation” value ([2]; SOD-2 silenced, FIG. 5B) was “did not protect SCs against ROS generation”. The cell-cycle progression ([2]; SOD-2 silenced, FIG. 5C) was “the cells did not undergo cell-cycle progression”, the p38/MAPK phosphorylation ([2]; SOD-2 silenced, FIG. 5D) was “did not induce p38/MAPK phosphorylation” and the “expression of miR-221 and miR-222 in SCs (qRT-PCR)” value ([3]; SCs from muscles of treated mice vs controls, FIG. 6A) was “significantly increased”. The “ROS production in SCs (DCF-DA)” value ([3]; SCs from treated mice, FIG. 3B) was “ROS production was lower”, the “SOD-2 protein expression in SCs” value ([3]; SCs from treated mice, Western blot, FIG. 3C) was “SOD-2 protein expression higher” and the “phospho(p)-p38/MAPK protein level in SCs” value ([3]; Western blot, FIG. 2C) was “found to be higher”. The “number of isolated Pax-7/MyoD/Myf5+ SCs” value ([3]; ex vivo, FIGS. 2B-2D) was “significantly increased number of Pax-7/MyoD/Myf5+SCs”, the SC cell-cycle progression ([4]; FIG. 5G) was “only UAG promoted SC cell-cycle progression” and the SOD-2 expression ([4]; FIG. 5I) was “induced SOD-2 expression”. For the same substance, the “protection from ROS generation” value ([4]; FIG. 5J) was “protected SCs from ROS generation”, the “p-p38/MAPK, Pax-7, MyoD, Myf5 and myogenin expression” value ([4]; FIGS. 5H, 5I) was “induced p-p38/MAPK, Pax-7, MyoD, Myf5 and myogenin expression” and the “effect on the hyperglycemic effects of ghrelin” value [5] was “prevent the hyperglycemic effects of ghrelin”. For the same substance, the PCNA expression ([6]; FACS, FIG. 4D) was “increased PCNA expression”, the “number of cells in S phase” value ([6]; FACS, FIG. 4E) was “increased” and the pp38/MAPK level ([6]; FIG. 4C) was “increased levels of pp38/MAPK”. For the same substance, the “ROS production (DCF-DA)” value ([6]; FIG. 4F) was “ROS production was decreased”, the SOD-2 expression ([6]; FIG. 4G) was “SOD-2 expression increased” and the “expression of Pax-7, MyoD and myogenin” value ([6]; FIGS. 4A, 4B) was “only UAG challenge induced expression”. The “binding to GHSR-1a” value [7] was “fails to bind”, the “protection against ischemia-induced damage (overall in vivo effect)” value ([8]; 100 μg/kg i.p. daily) was “protect against ischemia-induced damage” and the “foot damage (functional score)” value ([8]; 100 μg/kg i.p. daily from day 0, FIG. 1A) was “damage was significantly higher in saline- and AG-treated groups than in the UAG-treated group”. For the same substance, the “capillary density, ischemic vs contralateral control muscles of the same animals” value ([8]; 100 μg/kg i.p. daily, FIG. 1B) was “no such differences were observed”, the “number of functional vessels in ischemic muscles” value ([8]; 100 μg/kg i.p. daily, FIG. 1B) was “larger number of functional vessels” and the CD68-positive inflammatory cells ([8]; 100 μg/kg i.p. daily, FIG. 1E) was “reduced number of CD68-positive inflammatory cells”. The “regenerating myofibers in gastrocnemius muscles” value ([8]; 100 μg/kg i.p. daily, FIGS. 1C, 1D) was “increased number of regenerating myofibers”, the “myogenin-positive cells in ischemic muscles” value ([8]; FIGS. 2E, 2F) was “increased number of myogenin-positive cells” and the “Pax-7/MyoD+ cells in ischemic muscles” value ([8]; day 7) was “increased number of Pax-7/MyoD+ cells”. The “Pax-7/MyoD+ cells in ischemic muscles” value ([8]; day 21) was “scattered Pax-7/MyoD+ cells were still present”, the “SOD-2/Pax-7+ cells in ischemic muscle” value ([8]; double immunostaining, day 7, FIG. 3D) was “increased number of SOD-2/Pax-7+ cells” and the “cell-cycle entry and expression of SOD-2, Pax-7, MyoD, myogenin” value [9] was “no longer had any effect”. For the same substance, the p-p38/MAPK levels [9] was “p-p38/MAPK levels were reduced” and the “regeneration of skeletal muscle after ROS-independent toxic damage” value [10] was “regeneration of skeletal muscle was no longer observed”.

— patent publication US20160151458A1, “Use Of Unacylated Ghrelin, Fragments And Analogs Thereof As Antioxidant” (ALIZE PHARMA SAS, priority 2013, published 2016)
